Assay results published in ChEMBL document CHEMBL1150976, “The selectivity of protein kinase inhibitors: a further update” (Biochem J, 2007).

Assays:
[1] = target: Serine/threonine-protein kinase pim-3 (Homo sapiens, UniProt Q86V86); assay: Percentage PIM3 activity remaining in the presence of 0.1uM inhibitor
[2] = target: Serine/threonine-protein kinase PAK 4 (Homo sapiens, UniProt O96013); assay: Percentage PAK4 activity remaining in the presence of 0.1uM inhibitor
[3] = target: Mitogen-activated protein kinase 10 (Homo sapiens) (UniProt P53779); assay: Percentage JNK3 activity remaining in the presence of 0.1uM inhibitor
[4] = target: Aurora kinase B (Homo sapiens, UniProt Q96GD4); assay: Percentage Aurora B activity remaining in the presence of 0.1uM inhibitor
[5] = target: T1, Mitogen-activated protein kinase 15 (Homo sapiens) (UniProt Q8TD08); assay: Percentage ERK8 activity remaining in the presence of 0.1uM inhibitor
T1 sequence (whole entry): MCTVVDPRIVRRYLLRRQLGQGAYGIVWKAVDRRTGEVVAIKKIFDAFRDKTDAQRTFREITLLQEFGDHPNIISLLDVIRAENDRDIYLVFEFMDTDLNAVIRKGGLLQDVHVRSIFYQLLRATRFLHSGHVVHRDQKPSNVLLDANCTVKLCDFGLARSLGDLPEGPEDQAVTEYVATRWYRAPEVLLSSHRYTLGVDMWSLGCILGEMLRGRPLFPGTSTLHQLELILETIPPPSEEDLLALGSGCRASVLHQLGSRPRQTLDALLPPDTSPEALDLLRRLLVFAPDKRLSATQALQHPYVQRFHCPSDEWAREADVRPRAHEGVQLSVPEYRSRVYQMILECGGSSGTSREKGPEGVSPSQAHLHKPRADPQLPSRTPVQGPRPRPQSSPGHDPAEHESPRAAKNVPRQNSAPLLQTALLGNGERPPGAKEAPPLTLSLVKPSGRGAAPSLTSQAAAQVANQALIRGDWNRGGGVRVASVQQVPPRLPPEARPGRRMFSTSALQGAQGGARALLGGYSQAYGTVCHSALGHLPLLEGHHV

[6] = target: Mitogen-activated protein kinase 1 (Homo sapiens) (UniProt P28482); assay: Percentage ERK2 activity remaining in the presence of 0.1uM inhibitor
Sequence of Mitogen-activated protein kinase 1 (Homo sapiens) (P28482 whole entry): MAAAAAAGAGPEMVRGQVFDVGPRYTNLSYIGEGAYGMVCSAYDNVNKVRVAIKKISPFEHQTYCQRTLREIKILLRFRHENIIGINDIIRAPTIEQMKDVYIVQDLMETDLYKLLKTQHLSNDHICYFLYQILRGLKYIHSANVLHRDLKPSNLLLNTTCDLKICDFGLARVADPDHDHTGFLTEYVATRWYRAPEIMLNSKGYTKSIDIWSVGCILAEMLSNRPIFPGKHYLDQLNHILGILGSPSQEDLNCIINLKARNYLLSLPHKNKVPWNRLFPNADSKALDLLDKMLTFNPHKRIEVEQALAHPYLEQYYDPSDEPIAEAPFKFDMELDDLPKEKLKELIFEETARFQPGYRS

[7] = target: MAP kinase-activated protein kinase 2 (Homo sapiens) (UniProt P49137); assay: Percentage MAPKAPK2 activity remaining in the presence of 0.1uM inhibitor
Sequence of MAP kinase-activated protein kinase 2 (Homo sapiens) (P49137 whole entry, looked up): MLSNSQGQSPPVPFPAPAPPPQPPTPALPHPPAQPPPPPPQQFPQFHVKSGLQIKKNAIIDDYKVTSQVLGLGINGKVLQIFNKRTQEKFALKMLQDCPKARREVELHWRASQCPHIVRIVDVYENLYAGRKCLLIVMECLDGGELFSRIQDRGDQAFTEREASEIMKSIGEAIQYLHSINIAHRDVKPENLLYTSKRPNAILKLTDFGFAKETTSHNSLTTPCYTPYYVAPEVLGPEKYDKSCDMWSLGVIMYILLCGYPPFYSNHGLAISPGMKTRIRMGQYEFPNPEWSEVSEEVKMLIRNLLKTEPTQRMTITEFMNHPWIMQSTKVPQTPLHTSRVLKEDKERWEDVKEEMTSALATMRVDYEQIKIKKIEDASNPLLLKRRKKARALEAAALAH

[8] = target: RAC-alpha serine/threonine-protein kinase (Homo sapiens) (UniProt P31749); assay: Percentage PKBalpha activity remaining in the presence of 0.1uM inhibitor
Sequence of RAC-alpha serine/threonine-protein kinase (Homo sapiens) (P31749 whole entry): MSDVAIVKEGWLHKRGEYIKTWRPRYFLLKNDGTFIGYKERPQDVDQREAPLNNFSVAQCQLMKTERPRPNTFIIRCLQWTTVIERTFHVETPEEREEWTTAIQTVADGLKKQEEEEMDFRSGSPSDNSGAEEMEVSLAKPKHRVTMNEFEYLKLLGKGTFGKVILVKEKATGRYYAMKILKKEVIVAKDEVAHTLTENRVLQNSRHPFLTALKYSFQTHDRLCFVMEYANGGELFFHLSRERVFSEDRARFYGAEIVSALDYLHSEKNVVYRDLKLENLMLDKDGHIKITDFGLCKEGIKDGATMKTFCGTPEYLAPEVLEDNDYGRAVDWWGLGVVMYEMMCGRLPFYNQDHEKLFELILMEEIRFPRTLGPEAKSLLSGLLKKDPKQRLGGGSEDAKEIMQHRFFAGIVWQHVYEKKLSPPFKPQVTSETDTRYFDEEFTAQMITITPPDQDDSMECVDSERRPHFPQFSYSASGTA

[9] = target: Serine/threonine-protein kinase pim-2 (Homo sapiens, UniProt Q9P1W9); assay: Percentage PIM2 activity remaining in the presence of 0.1uM inhibitor
Sequence of Serine/threonine-protein kinase pim-2 (Q9P1W9 whole entry, looked up): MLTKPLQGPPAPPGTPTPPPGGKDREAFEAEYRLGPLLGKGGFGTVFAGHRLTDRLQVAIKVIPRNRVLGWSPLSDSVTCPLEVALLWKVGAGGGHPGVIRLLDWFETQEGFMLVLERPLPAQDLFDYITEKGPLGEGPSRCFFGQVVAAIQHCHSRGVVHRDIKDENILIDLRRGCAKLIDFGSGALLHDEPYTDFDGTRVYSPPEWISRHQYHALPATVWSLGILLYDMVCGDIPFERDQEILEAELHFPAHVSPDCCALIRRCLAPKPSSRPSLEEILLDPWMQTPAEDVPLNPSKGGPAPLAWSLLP

[10] = target: Maternal embryonic leucine zipper kinase (Homo sapiens) (UniProt Q14680); assay: Percentage MELK activity remaining in the presence of 0.1uM inhibitor
[11] = target: Tyrosine-protein kinase CSK (Homo sapiens, UniProt P41240); assay: Percentage CSK activity remaining in the presence of 0.1uM inhibitor
[12] = target: Mitogen-activated protein kinase 3 (Homo sapiens) (UniProt P27361); assay: Percentage ERK1 activity remaining in the presence of 0.1uM inhibitor
[13] = target: Casein kinase II (Homo sapiens) (UniProt P67870+P68400+P19784); assay: Percentage CK2 activity remaining in the presence of 0.1uM inhibitor; type: protein-complex assay
[14] = target: Myosin light chain kinase, smooth muscle (Homo sapiens, UniProt Q15746); assay: Percentage SmMLCK activity remaining in the presence of 0.1uM inhibitor
Sequence of Myosin light chain kinase, smooth muscle (Q15746 whole entry): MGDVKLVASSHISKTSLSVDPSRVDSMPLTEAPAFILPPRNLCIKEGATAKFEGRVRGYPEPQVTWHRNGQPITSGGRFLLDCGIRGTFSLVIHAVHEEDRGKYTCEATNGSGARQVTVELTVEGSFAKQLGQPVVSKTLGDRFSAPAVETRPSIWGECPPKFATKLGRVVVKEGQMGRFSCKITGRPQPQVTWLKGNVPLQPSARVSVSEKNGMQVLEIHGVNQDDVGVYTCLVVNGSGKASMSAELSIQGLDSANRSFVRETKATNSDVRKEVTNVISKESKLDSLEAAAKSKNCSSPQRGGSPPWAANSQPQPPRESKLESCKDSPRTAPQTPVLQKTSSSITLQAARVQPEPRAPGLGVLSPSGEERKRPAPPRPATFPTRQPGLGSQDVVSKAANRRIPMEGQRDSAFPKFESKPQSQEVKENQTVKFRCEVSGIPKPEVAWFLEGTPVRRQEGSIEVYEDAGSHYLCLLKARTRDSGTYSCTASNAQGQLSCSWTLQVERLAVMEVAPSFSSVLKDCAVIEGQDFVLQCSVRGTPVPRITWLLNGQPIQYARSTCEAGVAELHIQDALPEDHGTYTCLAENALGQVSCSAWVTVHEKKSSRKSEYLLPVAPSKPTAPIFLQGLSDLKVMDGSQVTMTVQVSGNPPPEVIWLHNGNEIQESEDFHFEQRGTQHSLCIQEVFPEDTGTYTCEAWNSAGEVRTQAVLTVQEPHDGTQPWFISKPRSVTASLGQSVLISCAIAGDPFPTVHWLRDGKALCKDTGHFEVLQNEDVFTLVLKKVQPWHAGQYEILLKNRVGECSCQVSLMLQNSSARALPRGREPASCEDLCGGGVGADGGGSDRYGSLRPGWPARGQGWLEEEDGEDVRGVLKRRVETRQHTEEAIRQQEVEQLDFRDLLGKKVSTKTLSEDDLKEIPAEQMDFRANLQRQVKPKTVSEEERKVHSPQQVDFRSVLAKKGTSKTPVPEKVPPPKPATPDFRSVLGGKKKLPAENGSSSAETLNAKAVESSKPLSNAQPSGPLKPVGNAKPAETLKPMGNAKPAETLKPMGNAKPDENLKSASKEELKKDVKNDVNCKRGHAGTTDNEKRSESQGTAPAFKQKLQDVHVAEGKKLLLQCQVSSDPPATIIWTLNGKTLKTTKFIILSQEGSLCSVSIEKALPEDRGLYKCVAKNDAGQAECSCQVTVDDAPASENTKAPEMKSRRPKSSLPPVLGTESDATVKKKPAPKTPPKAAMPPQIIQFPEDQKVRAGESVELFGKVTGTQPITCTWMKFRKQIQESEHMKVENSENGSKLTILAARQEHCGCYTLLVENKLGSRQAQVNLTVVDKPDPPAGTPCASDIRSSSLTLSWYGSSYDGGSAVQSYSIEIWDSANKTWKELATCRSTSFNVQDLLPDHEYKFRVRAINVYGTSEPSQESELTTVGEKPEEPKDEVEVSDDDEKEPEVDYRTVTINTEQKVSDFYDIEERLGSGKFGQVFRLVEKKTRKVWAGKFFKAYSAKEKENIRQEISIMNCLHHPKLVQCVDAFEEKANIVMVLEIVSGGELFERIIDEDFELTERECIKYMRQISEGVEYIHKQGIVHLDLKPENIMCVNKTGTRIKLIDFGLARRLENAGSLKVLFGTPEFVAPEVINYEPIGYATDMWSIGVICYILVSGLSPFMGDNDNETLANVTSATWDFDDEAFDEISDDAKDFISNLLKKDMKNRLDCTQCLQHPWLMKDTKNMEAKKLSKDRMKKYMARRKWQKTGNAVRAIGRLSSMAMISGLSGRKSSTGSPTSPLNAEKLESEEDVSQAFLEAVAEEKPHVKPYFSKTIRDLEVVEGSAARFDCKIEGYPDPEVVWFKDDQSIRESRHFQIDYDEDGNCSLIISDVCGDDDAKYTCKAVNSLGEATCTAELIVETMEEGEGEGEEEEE

[15] = target: MAP kinase-interacting serine/threonine-protein kinase 1 (Homo sapiens) (UniProt Q9BUB5); assay: Percentage MNK1 activity remaining in the presence of 0.1uM inhibitor
[16] = target: MAP kinase-interacting serine/threonine-protein kinase 2 (Homo sapiens) (UniProt Q9HBH9); assay: Percentage MNK2 activity remaining in the presence of 0.1uM inhibitor
[17] = target: Serine/threonine-protein kinase PAK 5 (Homo sapiens) (UniProt Q9P286); assay: Percentage PAK5 activity remaining in the presence of 0.1uM inhibitor
[18] = target: Ribosomal protein S6 kinase alpha-1 (Homo sapiens) (UniProt Q15418); assay: Percentage RSK1 activity remaining in the presence of 0.1uM inhibitor
Sequence of Ribosomal protein S6 kinase alpha-1 (Homo sapiens) (Q15418 whole entry): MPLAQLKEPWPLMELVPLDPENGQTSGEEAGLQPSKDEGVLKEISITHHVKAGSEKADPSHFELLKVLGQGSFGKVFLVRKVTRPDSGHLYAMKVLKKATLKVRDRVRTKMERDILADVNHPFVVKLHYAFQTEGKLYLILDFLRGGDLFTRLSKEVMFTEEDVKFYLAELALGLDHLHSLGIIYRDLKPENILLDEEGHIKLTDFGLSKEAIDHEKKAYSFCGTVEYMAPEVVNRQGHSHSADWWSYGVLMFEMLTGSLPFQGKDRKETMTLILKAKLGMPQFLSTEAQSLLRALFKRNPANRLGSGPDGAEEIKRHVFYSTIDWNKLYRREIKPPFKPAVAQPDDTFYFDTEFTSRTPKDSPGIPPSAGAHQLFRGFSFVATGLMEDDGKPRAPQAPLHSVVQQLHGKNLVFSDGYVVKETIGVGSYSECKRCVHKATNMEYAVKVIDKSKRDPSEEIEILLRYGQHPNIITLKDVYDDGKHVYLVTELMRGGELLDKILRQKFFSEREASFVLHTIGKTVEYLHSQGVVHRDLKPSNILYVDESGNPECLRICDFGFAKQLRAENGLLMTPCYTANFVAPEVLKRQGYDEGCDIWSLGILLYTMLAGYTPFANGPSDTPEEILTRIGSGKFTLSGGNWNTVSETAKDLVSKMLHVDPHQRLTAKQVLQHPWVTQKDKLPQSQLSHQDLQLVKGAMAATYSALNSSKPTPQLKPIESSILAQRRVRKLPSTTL

[19] = target: T2, 3-phosphoinositide-dependent protein kinase 1 (Homo sapiens) (UniProt O15530); assay: Percentage PDK1 activity remaining in the presence of 0.1uM inhibitor
T2 sequence (whole entry): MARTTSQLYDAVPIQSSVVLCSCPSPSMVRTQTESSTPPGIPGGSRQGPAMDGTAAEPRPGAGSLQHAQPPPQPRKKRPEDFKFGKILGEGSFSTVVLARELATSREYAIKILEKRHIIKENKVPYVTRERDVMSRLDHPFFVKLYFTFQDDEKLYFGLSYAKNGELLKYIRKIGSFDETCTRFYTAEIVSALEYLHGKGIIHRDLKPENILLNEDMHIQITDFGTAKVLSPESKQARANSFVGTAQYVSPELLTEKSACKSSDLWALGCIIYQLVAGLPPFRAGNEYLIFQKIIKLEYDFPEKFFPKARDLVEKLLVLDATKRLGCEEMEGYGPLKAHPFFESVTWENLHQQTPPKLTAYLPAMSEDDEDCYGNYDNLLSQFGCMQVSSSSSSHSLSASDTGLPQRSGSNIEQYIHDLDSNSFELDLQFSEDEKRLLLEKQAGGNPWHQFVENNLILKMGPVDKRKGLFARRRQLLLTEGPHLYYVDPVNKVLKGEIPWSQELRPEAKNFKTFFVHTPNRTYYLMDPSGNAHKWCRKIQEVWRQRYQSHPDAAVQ

[20] = target: cAMP-dependent protein kinase catalytic subunit alpha (Homo sapiens, UniProt P17612); assay: Percentage PKA activity remaining in the presence of 0.1uM inhibitor
[21] = target: SRSF protein kinase 1 (Homo sapiens) (UniProt Q96SB4); assay: Percentage SRPK1 activity remaining in the presence of 0.1uM inhibitor
[22] = target: Ribosomal protein S6 kinase alpha-5 (Homo sapiens) (UniProt O75582); assay: Percentage MSK1 activity remaining in the presence of 0.1uM inhibitor
[23] = target: Mitogen-activated protein kinase 9 (Homo sapiens, UniProt P45984); assay: Percentage JNK2 activity remaining in the presence of 0.1uM inhibitor
Sequence of Mitogen-activated protein kinase 9 (P45984 whole entry, looked up): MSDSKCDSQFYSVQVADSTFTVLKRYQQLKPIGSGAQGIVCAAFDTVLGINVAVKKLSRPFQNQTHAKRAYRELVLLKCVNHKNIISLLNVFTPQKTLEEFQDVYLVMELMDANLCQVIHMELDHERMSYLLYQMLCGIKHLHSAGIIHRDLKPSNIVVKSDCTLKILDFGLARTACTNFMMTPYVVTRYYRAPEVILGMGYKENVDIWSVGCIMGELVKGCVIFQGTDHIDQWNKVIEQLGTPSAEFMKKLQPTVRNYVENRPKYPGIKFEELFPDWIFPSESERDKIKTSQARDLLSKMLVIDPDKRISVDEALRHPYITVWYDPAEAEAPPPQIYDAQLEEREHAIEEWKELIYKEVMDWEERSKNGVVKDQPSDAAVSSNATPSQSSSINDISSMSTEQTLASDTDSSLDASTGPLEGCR

[24] = target: Homeodomain-interacting protein kinase 2 (Homo sapiens) (UniProt Q9H2X6); assay: Percentage HIPK2 activity remaining in the presence of 0.1uM inhibitor

Structure (SMILES) | Activity ([1]; filed as antagonist) | Activity [2] | Activity [3] | Activity [4] | Activity [6] | Activity [7] | Activity [11] | Activity [12] | Activity [13] | Activity [15] | Activity [16] | Activity [17] | Activity ([18]; filed as antagonist) | Activity [19] | Activity [21] | Activity [23] | Activity [8] | Activity [14] | Activity [20] | Activity [24] | further results
Cc1n[nH]c2ccc(-c3cncc(OC[C@@H](N)Cc4c[nH]c5ccccc45)c3)cc12 | 13% | 90% | 86% | 80% | 64% | 73% | 93% | 59% | 90% | 109% | 80% | 96% | 32% | 79% | 91% | 78% |  |  |  |  | Activity ([5]; filed as antagonist): 28%; Activity ([8]; filed as antagonist): 3%; Activity ([9]; filed as antagonist): 15%; Activity [10]: 63%; Activity ([14]; filed as antagonist): 27%; Activity ([20]; filed as antagonist): 3%; Activity ([22]; filed as antagonist): 9%; Activity ([24]; filed as antagonist): 24%
CC(C)[C@H](CO)Nc1nc(Nc2cccc(Cl)c2)c2ncn(C(C)C)c2n1 [PURVALANOLA] |  |  | 100% | 89% | 79% | 106% | 82% | 95% | 99% | 92% | 98% | 53% |  | 79% | 79% | 96% | 95% | 86% | 79% |  | Activity [1]: 91%; Activity ([2]; filed as antagonist): 43%; Activity [5]: 70%; Activity [9]: 96%; Activity [10]: 72%; Activity [18]: 74%; Activity [22]: 89%
Cn1c2ccccc2c2c3c(c4c5ccccc5n(CCC#N)c4c21)CNC3=O | 7% |  | 79% |  |  | 118% | 75% |  | 88% | 67% |  |  | 6% |  | 92% | 68% | 96% |  |  | 63% | Activity ([2]; filed as antagonist): 5%; Activity ([4]; filed as antagonist): 17%; Activity ([5]; filed as antagonist): 38%; Activity ([6]; filed as antagonist): 41%; Activity ([10]; filed as antagonist): 15%; Activity ([12]; filed as antagonist): 44%; Activity ([14]; filed as antagonist): 40%; Activity ([16]; filed as antagonist): 30%; Activity ([17]; filed as antagonist): 6%; Activity ([19]; filed as antagonist): 11%; Activity ([20]; filed as antagonist): 50%; Activity ([22]; filed as antagonist): 6%
CC(C)CCN1c2nc(Nc3cc(F)c(O)c(F)c3)ncc2N(C)C(=O)C1C (centres undefined) |  | 81% | 97% |  | 85% | 89% | 99% | 115% | 97% | 87% | 96% | 90% | 1% | 94% | 94% | 115% | 98% | 107% | 89% | 103% | Activity [1]: 65%; Activity ([4]; filed as antagonist): 22%; Activity [5]: 82%; Activity [9]: 100%; Activity ([10]; filed as antagonist): 40%; Activity [22]: 125%
CN(C)C[C@@H]1CCn2cc(c3ccccc32)C2=C(C(=O)NC2=O)c2cn(c3ccccc23)CCO1 | 5% | 75% | 112% | 65% | 94% | 114% | 78% | 84% | 89% | 94% | 101% | 79% | 10% |  |  | 99% | 90% | 66% | 59% | 63% | Activity [5]: 92%; Activity ([9]; filed as antagonist): 41%; Activity ([19]; filed as antagonist): 25%; Activity ([22]; filed as antagonist): 44%
Cn1cc(C2=C(c3cn(CCCSC(=N)N)c4ccccc34)C(=O)NC2=O)c2ccccc21 | 16% | 75% | 102% | 80% | 92% | 90% | 77% | 88% | 99% | 95% | 103% | 79% | 11% | 62% | 82% | 92% | 52% | 63% | 51% | 88% | Activity [5]: 51%; Activity ([9]; filed as antagonist): 30%; Activity [10]: 61%; Activity ([22]; filed as antagonist): 11%
O=C(NCCCNc1nc(Nc2cccc(NC(=O)N3CCCC3)c2)ncc1I)c1cccs1 |  | 71% | 93% |  | 71% | 108% | 101% | 66% | 93% |  |  | 81% |  |  | 86% | 70% | 90% | 95% | 72% | 101% | Activity [1]: 63%; Activity ([4]; filed as antagonist): 3%; Activity ([5]; filed as antagonist): 7%; Activity [9]: 92%; Activity ([10]; filed as antagonist): 32%; Activity ([15]; filed as antagonist): 37%; Activity ([16]; filed as antagonist): 19%; Activity [18]: 55%; Activity ([19]; filed as antagonist): 5%; Activity [22]: 84%
